This note sets out measurements from patent US20240124503A1, “HETEROAROMATIC PHOSPHONIUM SALTS AND THEIR USE TREATING CANCER” (FLORATEK PHARMA S.A., priority 2021, published 2024).

Holding throughout (type): cell-based
The subject of test [1] is MCF-7. The test can be described thus: Cell viability assay, MCF-7. The note with it: breast carcinoma cell line MCF-7. As to the method:
(§1) Antitumor activity of the compounds and doxorubicin as a positive control was assessed by using the CellTiter-Blue Cell Viability Assay (Promega, #G8082) or CellTiter-Glow® Luminescent Cell Viability assay (Promega #G7572) according to the manufacturer's instructions. The compounds were tested at 5 or 6 concentrations in half-log increments (highest concentration 30 μM or 100 μM) in duplicate or triplicate well conditions.
(§2) Tumor cells were grown at 37° C. in a humidified atmosphere with 5% CO2 in RPMI 1640 or DMEM medium, supplemented with 10% (v/v) fetal calf serum and 50 μg/ml gentamicin for up to 20 passages, and were passaged once or twice weekly. Cells were harvested using TrypLE or PBS buffer containing 1 mM EDTA, and the percentage of viable cells was determined using a CASY Model TI cell counter (OMNI Life Science). Cells were harvested from exponential phase cultures, counted and plated in 96 well flat-bottom microtiter plates at a cell density depending on the cell line's growth rate (4,000-20,000 cells/well depending on the cell line's growth rate, up to 60,000 for hematological cancer cell lines) in RPMI 1640 or DMEM medium supplemented with 10% (v/v) fetal calf serum and 50 μg/ml gentamicin (140 μl/well). […] Viability of cells was quantified by the CellTiter-Blue® cell viability assay (Promega G8081) or CellTiter-Glow® Luminescent Cell Viability assay (Promega #G7572). […]

For test [2], the system named is MDA-MB-468. Nature of the test: Cell viability assay, MDA-MB-468. To be noted: breast carcinoma cell line MDA-MB-468. The procedure: as §1, §2
Test [3] relates to HCT-116. The test can be described thus: Cell viability assay, HCT-116. To be noted: colon carcinoma cell line HCT-116. As to the method: as §1, §2
For test [4], the system named is LoVo. Nature of the test: Cell viability assay, LoVo. To be noted: colon carcinoma cell line LoVo. As to the method: as §1, §2
Test [5] relates to HT-29. Nature of the test: Cell viability assay, HT-29. To be noted: colon carcinoma cell line HT-29. The procedure: as §1, §2
Test [6] deals with HCT-15. The test can be described thus: Cell viability assay, HCT-15. The note with it: colon carcinoma cell line HCT-15. As to the method:
as §1, §2

Test [7] relates to KM-12. Nature of the test: Cell viability assay, KM-12. The note with it: colon carcinoma cell line KM-12. As to the method:
as §1, §2

Test [8] has as its system CO-04-0701. Nature of the test: Cell viability, colon PDX CO-04-0701. As to the method:
(§3) PDX-derived cell cultures were obtained from tumors explanted from mice and isolated by mechanical and enzymatic dissociation. […] Cells were harvested and seeded in 96-wells plates at a density of 1.25 to 5×10^3 cells/well for cytotoxicity assays. Cells were incubated 48 h at 37° C. prior to addition of test molecules and vehicle (DMSO, 0.1%) at desired final concentrations. Cell viability was assessed before drugs' addition (To) and 5 days after test molecules addition by measuring ATP cell content using CellTiter-Glo® Luminescent Cell Viability Assay (Promega) according to the manufacturer's instructions. Luciferase activity was measured on a luminometer (PerkinElmer® EnVision™). Each concentration of compounds was tested in triplicate.
(§4) Viability was calculated as a percentage of ATP value compared to vehicle treated controls.
(§5) For PDX primary cell cultures, the tumour tissue was washed with PBS containing antibiotic-antimycotic and non-tumour tissue and necrotic tumour tissues were separated. The tumour tissue was transferred to a new dish and cut into 1˜2 mm^3 fragments, resuspended in RPMI-1640 medium and centrifuged at 1,200 rpm for 6 min at room temperature. The pelleted material was resuspended with 15 mL of Tumour Cell Digestion Solution and incubated at 37° C. for 1 hour with agitation. […]

Test [9] concerns CO-04-0700. The test can be described thus: Cell viability, colon PDX CO-04-0700. The procedure: as §3, §4, §5
Test [10] relates to HN-13-0020. The test can be described thus: Cell viability, head and neck PDX HN-13-0020. As to the method: as §3, §4
For PDX primary cell cultures, the tumour tissue was washed with PBS containing antibiotic-antimycotic and non-tumour tissue and necrotic tumour tissues were separated. The tumour tissue was transferred to a new dish and cut into 1˜2 mm^3 fragments, resuspended in RPMI-1640 medium and centrifuged at 1,200 rpm for 6 min at room temperature. The pelleted material was resuspended with 15 mL of Tumour Cell Digestion Solution and incubated at 37° C. for 1 hour with agitation. Following further addition of media, centrifugation and passage through a 70 μm cell strainer, the homogenous cell mixture was layered onto 15 mL of Ficoll-Paque PLUS in a 50 mL conical tube and centrifuged for 15 min at 1,600 rpm. The interface cells were collected, washed with media, separated by centrifugation at 1,200 rpm. The cell pellet was resuspended in serum free media supplemented with growth factors. 10,000 cells/wells were plated in a 96 well plate and incubated at 37° C., 5% CO2, 95% air and 100% relative humidity overnight. The cytotoxicity assay was conducted as above.
Sigmoidal concentration-response curves were fitted to the data points (test-versus-control, T/C values) obtained for each tumor model using GraphPad prism 5.02 software.

Test [11] concerns HL-60. The test can be described thus: Cell viability assay, HL-60. The procedure: as §1
Tumor cells were grown at 37° C. in a humidified atmosphere with 5% CO2 in RPMI 1640 or DMEM medium, supplemented with 10% (v/v) fetal calf serum and 50 μg/ml gentamicin for up to 20 passages, and were passaged once or twice weekly. Cells were harvested using TrypLE or PBS buffer containing 1 mM EDTA, and the percentage of viable cells was determined using a CASY Model TI cell counter (OMNI Life Science). Cells were harvested from exponential phase cultures, counted and plated in 96 well flat-bottom microtiter plates at a cell density depending on the cell line's growth rate (4,000-20,000 cells/well depending on the cell line's growth rate, up to 60,000 for hematological cancer cell lines) in RPMI 1640 or DMEM medium supplemented with 10% (v/v) fetal calf serum and 50 μg/ml gentamicin (140 μl/well). Cultures were incubated at 37° C. and 5% CO2 in a humidified atmosphere. After 24 h, 10 μl of test compounds or control medium were added and left on the cells for another 72 h. Compounds were serially diluted in DMSO, transferred in cell culture medium, and added to the assay plates. The DMSO concentration was kept constant at <0.3% v/v across the assay plate. Viability of cells was quantified by the CellTiter-Blue® cell viability assay (Promega G8081) or CellTiter-Glow® Luminescent Cell Viability assay (Promega #G7572). Fluorescence (FU) was measured by using the EnSpire® multimode plate reader (Perkin Elmer) (excitation λ=570 nm, emission λ=600 nm) Luminescence was measured with a microplate luminometer (Promega or PerkinElmer). […]

The subject of test [12] is LU-01-0010. Nature of the test: Cell viability, lung PDX LU-01-0010. The procedure: as §3, §4, §5
Test [13] concerns LU-01-0004. Nature of the test: Cell viability, lung PDX LU-01-0004. The procedure: as §3, §4, §5
Test [14] concerns OVCAR-3. The test can be described thus: Cell viability assay, OVCAR-3. The note with it: ovarian carcinoma OVCAR-3. As to the method: as §1, §2
The subject of test [15] is PC-07-0045. Nature of the test: Cell viability, pancreatic PDX PC-07-0045. As to the method: as §3, §4, §5
Test [16] relates to PC-07-0059. Nature of the test: Cell viability, pancreatic PDX PC-07-0059. The procedure:
as §3, §4, §5

In test [17] the test system is ONCap. Nature of the test: Cell viability assay, ONCap. The note with it: prostate carcinoma cell line ONCap. As to the method:
as §1, §2

In test [18] the test system is ST-020012. The test can be described thus: Cell viability, stomach PDX ST-020012. As to the method:
as §3, §4, §5

For test [19], the system named is ST-02-0322. Nature of the test: Cell viability, stomach PDX ST-02-0322. The procedure:
as §3, §4, §5

The mark [20] stands for this setting: head and neck PDX HN-13-0020, read-out: IC50.

Where two headings read alike, the source gives them in different places.

Regarding `COc1c(O)ccc2c(=O)c(O)c(-c3ccc(CCCC[P+](c4ccccc4)(c4ccccc4)c4ccccc4)cc3)oc12` [SND190, (4-(4-(3,7-Dihydroxy-8-methoxy-4-oxo-4H1-chromen-2-yl)phenyl)butyl)triphenylphosphonium bromide], the half-inhibitory concentration (IC50) stood at 3910 nM in test [1] (Homo sapiens, MCF7); 300 nM in test [2] (Homo sapiens); 810 nM in test [3] (Homo sapiens); 2490 nM in [4] (Homo sapiens); 5780 nM in test [5] (Homo sapiens); 15000 nM in test [6] (Homo sapiens). The IC50 in [7] (Homo sapiens, KM12) was 1700 nM; in test [8], 14700 nM; in test [9], 2400 nM; in [10] (setting [20]), 2260 nM; in test [10] (summary of Table 10, read-out: IC50, head and neck PDX growth) it was under 5000 nM; in [11] (Homo sapiens, HL-60, summary of Table 12, read-out: IC50, leukaemia cell growth) it was under 1000 nM. The IC50 in [11] (Homo sapiens, leukaemia cell line HL-60, read-out: IC50) was found to be 300 nM; in test [12], 1100 nM; in test [13] it was 5400 nM; in test [14] (Homo sapiens), 3810 nM; in test [15], 3400 nM; in [16], 2300 nM. Also, the results for the IC50 in test [17], in [18] and in test [19] were 1500 nM, 4500 nM and 6300 nM, respectively.
In the case of `O=c1cc(-c2ccc(CCC[P+](c3ccccc3)(c3ccccc3)c3ccccc3)cc2)oc2c(O)c(O)ccc12` [SND200, (3-(4-(7,8-Dihydroxy-4-oxo-4H1-chromen-2-yl)phenyl)propyl)triphenylphosphonium bromide], the half-inhibitory concentration (IC50) in test [1] came to 1680 nM; in [2], 300 nM; in test [3], 1480 nM; in [4] it was 640 nM; in test [5] it was 3310 nM; in test [6] it was 7490 nM. Further, the IC50 amounted to 440 nM in test [7]; 15100 nM in [8]; 7600 nM in test [9]; 4100 nM in [10] (setting [20]); 300 nM in [11] (leukaemia cell line HL-60, read-out: IC50); 10000 nM in test [12]. Besides, the IC50 was determined as 9800 nM in test [13]; 1600 nM in [14]; 2300 nM in test [15]; 6700 nM in [16]; 520 nM in [17]; 8800 nM in test [18]. For the same compound, the half-inhibitory concentration (IC50) in test [19] is 8500 nM.

As a reminder, the IC50 is the point on the concentration scale where inhibition reaches its midpoint.
